ChEMBL document CHEMBL6087465, “Design, Synthesis, and Antitumor Activity Evaluation of 2-Phenylthiazole-5-Carboxylic Acid Derivatives Targeting Transactivation Response RNA-Binding Protein 2” (J Med Chem, 2025)
Activity calls are given as the source filed them. The rule behind the calls is not given here.

Assays:
[1] = test system: SK-HEP1; assay: Antiproliferative activity against human SK-HEP1 cells cultured as 2D cells assessed as inhibition of cell growth at 10 uM incubated for 72 hrs by CCK-8 assay; type: functional, cell-based
[2] = test system: HCCLM3; assay: Antiproliferative activity against human HCCLM3 cells cultured as 2D cells assessed as inhibition of cell growth at 10 uM incubated for 72 hrs by CCK-8 assay; type: functional, cell-based

Row | SMILES | Activity [1] | Activity [2]
1 | CCCCOc1ccc(-c2nc(C)c(C(=O)O)s2)cc1 | inactive | inactive
2 | Cc1nc(-c2ccc(OCC(C)(C)C)cc2)sc1C(=O)O | inactive | inactive
3 | Cc1nc(-c2ccc(OCC3CC3)cc2)sc1C(=O)O | inactive | inactive
4 | Cc1nc(-c2ccc(OCC3CC3)c(Br)c2)sc1C(=O)O | inactive | inactive
5 | CCOc1nc(-c2ccc(OCC3CC3)cc2)sc1C(=O)O | inactive | inactive
